# Read-outs that look alike come from different tables or passages of the source.
# How the values were obtained:
# [1] = tested on: Puccinia recondita f. Sp. Tritici; assay: Puccinia recondita f. sp. tritici / wheat / leaf disc preventative (brown rust); assay type: in vivo; conditions: foliar, read-out: disease control
# Procedure: Leaf disks or leaf segments of various plant species are cut from plants grown in a greenhouse. The cut leaf disks or segments are placed in multiwell plates (24-well format) onto water agar. The leaf disks are sprayed with a test solution before (preventative) or after (curative) inoculation. Compounds to be tested are prepared as DMSO solutions (max. 10 mg/ml) which are diluted to the appropriate concentration with 0.025% Tween20 just before spraying. The inoculated leaf disks or segments are incubated under defined conditions (temperature, relative humidity, light, etc.) according to the respective test system. A single evaluation of disease level is carried out 3 to 14 days after inoculation, depending on the pathosystem. Percent disease control relative to the untreated check leaf disks or segments is then calculated.
# Example 1: Fungicidal Activity Against Puccinia recondita f. Sp. Tritici/Wheat/Leaf Disc Preventative (Brown Rust)
# Wheat leaf segments cv. Kanzler were placed on agar in multiwell plates (24-well format) and sprayed with the Formulated test compound diluted in water. The leaf disks were inoculated with a spore suspension of the fungus 1 day after application. The inoculated leaf segments were incubated at 19° C. and 75% relative humidity (rh) under a light regime of 12 hours light/12 hours darkness in a climate cabinet and the activity of a compound was assessed as percent disease control compared to untreated when an appropriate level of disease damage appears in untreated check leaf segments (7 to 9 days after application).
# The following compounds at 200 ppm in the applied Formulation give at least 80% disease control in this test when compared to untreated control leaf disks under the same conditions, which show extensive disease development.
# [2] = tested on: Glomerella lacenarium (Colletotrichum lacenarium); assay: Glomerella lacenarium (Colletotrichum lacenarium) liquid culture / cucumber / preventative (anthracnose); assay type: cell-based; conditions: read-out: disease control
# Procedure: Mycelia fragments or conidia suspensions of a fungus prepared either freshly from liquid cultures of the fungus or from cryogenic storage, are directly mixed into nutrient broth. DMSO solutions of the test compound (max. 10 mg/ml) are diluted with 0.025% Tween20 by a factor of 50 and 10 μl of this solution is pipetted into a microtiter plate (96-well format). The nutrient broth containing the fungal spores/mycelia fragments is then added to give an end concentration of the tested compound. The test plates are incubated in the dark at 24° C. and 96% relative humidity. The inhibition of fungal growth is determined photometrically after 2 to 7 days, depending on the pathosystem, and percent antifungal activity relative to the untreated check is calculated.
# Example 4: Fungicidal Activity Against Glomerella lacenarium (Colletotrichum lacenarium) Liquid Culture/Cucumber/Preventative (Anthracnose)
# Conidia of the fungus from cryogenic storage are directly mixed into nutrient broth (PDB-potato dextrose broth). After placing a (DMSO) solution of test compound into a microtiter plate (96-well format), the nutrient broth containing the fungal spores is added. The test plates are incubated at 24° C. and the inhibition of growth is measured photometrically 3 to 4 days after application.
# The following compounds at 20 ppm in the applied Formulation give at least 80% disease control in this test when compared to untreated control under the same conditions, which show extensive disease development.
# [3] = 200 ppm in the applied formulation, wheat leaf segments cv. Kanzler, inoculated 1 day after application, vs untreated, 7 to 9 days after application
# [4] = 20 ppm, liquid culture in PDB, 24° C., inhibition of growth measured photometrically 3 to 4 days after application, vs untreated
smiles,measurement,setting,value
"CC(C)(C)OC(=O)NC(C(=O)Nc1ccc(-c2noc(C(F)(F)F)n2)cc1)c1ccccc1 (centres unmarked) [Compound 1.18, tert-butyl N-[2-oxo-1-phenyl-2-[4-[5-(trifluoromethyl)-1,2,4-oxadiazol-3-yl]anilino]ethyl] carbamate]",pest or weed control at 200 ppm,[1]; [3],≥ 80%
"O=C(CF)Nc1ccc(-c2noc(C(F)(F)F)n2)cc1 [Compound 1.19, 2-fluoro-N-[4-[5-(trifluoromethyl)-1,2,4-oxadiazol-3-yl]phenyl]acetamide]",inhibition of growth at 20 ppm,[2],≥ 80%
same,pest or weed control at 200 ppm,[1],≥ 80%
"CC=CC=CC(=O)NC1(C(=O)Nc2ccc(-c3noc(C(F)(F)F)n3)cc2)CCCC(C)C1 (centres unmarked) [Compound 1.21, 1-(hexa-2,4-dienoylamino)-3-methyl-N-[4-[5-(trifluoromethyl)-1,2,4-oxadiazol-3-yl]phenyl]cyclo-hexanecarboxamide]",pest or weed control at 200 ppm,[1]; [3],≥ 80%
"CC(=O)Nc1ccc(CC(=O)Nc2ccc(-c3noc(C(F)(F)F)n3)cc2)cc1 [Compound 1.26, 2-(4-acetamidophenyl)-N-[4-[5-(trifluoromethyl)-1,2,4-oxadiazol-3-yl]phenyl]acetamide]",pest or weed control at 200 ppm,[1]; [3],≥ 80%
"O=C(CSc1ccccc1)Nc1ccc(-c2noc(C(F)(F)F)n2)cc1 [Compound 1.44, 2-phenylsulfanyl-N-[4-[5-(trifluoromethyl)-1,2,4-oxadiazol-3-yl]phenyl]acetamide]",inhibition of growth at 20 ppm,[2]; [4],≥ 80%
same,pest or weed control at 200 ppm,[1]; [3],≥ 80%
"O=C(Cc1ccc2c(c1)OCO2)Nc1ccc(-c2noc(C(F)(F)F)n2)nc1 [Compound 1.48, 2-(1,3-benzodioxol-5-yl)-N-[6-[5-(trifluoromethyl)-1,2,4-oxadiazol-3-yl]-3-pyridyl]acetamide]",inhibition of growth at 20 ppm,[2]; [4],≥ 80%
"N#Cc1cc(F)c(C(=O)Nc2ccc(-c3noc(C(F)(F)F)n3)nc2)c(F)c1 [Compound 1.49, 4-cyano-2,6-difluoro-N-[6-[5-(trifluoromethyl)-1,2,4-oxadiazol-3-yl]-3-pyridyl]benzamide]",pest or weed control at 200 ppm,[1]; [3],≥ 80%
"CON(C)C(=O)Nc1ccc(-c2noc(C(F)(F)F)n2)nc1 [Compound 1.65, 1-methoxy-1-methyl-3-[6-[5-(trifluoromethyl)-1,2,4-oxadiazol-3-yl]-3-pyridyl]urea]",inhibition of growth at 20 ppm,[2]; [4],≥ 80%
"O=C(CCc1ccccc1)Nc1ccc(-c2noc(C(F)(F)F)n2)cc1 [Compound 1.76, 3-phenyl-N-[4-[5-(trifluoromethyl)-1,2,4-oxadiazol-3-yl]phenyl] propanamide]",inhibition of growth at 20 ppm,[2]; [4],≥ 80%
same,pest or weed control at 200 ppm,[1]; [3],≥ 80%
"CC(Oc1ccccc1)C(=O)Nc1ccc(-c2noc(C(F)(F)F)n2)cc1 (centres unmarked) [Compound 1.79, 2-phenoxy-N-[4-[5-(trifluoromethyl)-1,2,4-oxadiazol-3-yl]phenyl] propanamide]",inhibition of growth at 20 ppm,[2]; [4],≥ 80%
"O=C(CC1CC1)Nc1ccc(-c2noc(C(F)(F)F)n2)cc1 [Compound 1.80, 2-cyclopropyl-N-[4-[5-(trifluoromethyl)-1,2,4-oxadiazol-3-yl]phenyl]acetamide]",inhibition of growth at 20 ppm,[2]; [4],≥ 80%
same,pest or weed control at 200 ppm,[1]; [3],≥ 80%
"O=C(Nc1ccc(-c2noc(C(F)(F)F)n2)cc1)C1CSC1 [Compound 1.82, N-[4-[5-(trifluoromethyl)-1,2,4-oxadiazol-3-yl]phenyl]thietane-3-carboxamide]",inhibition of growth at 20 ppm,[2]; [4],≥ 80%
same,pest or weed control at 200 ppm,[1]; [3],≥ 80%
"COC(=O)CCC(=O)Nc1ccc(-c2noc(C(F)(F)F)n2)cc1 [Compound 1.83, methyl 4-oxo-4-[4-[5-(trifluoromethyl)-1,2,4-oxadiazol-3-yl]anilino]butanoate]",inhibition of growth at 20 ppm,[2]; [4],≥ 80%
same,pest or weed control at 200 ppm,[1]; [3],≥ 80%
"O=C(Cc1cccnc1)Nc1ccc(-c2noc(C(F)(F)F)n2)cc1 [Compound 1.84, 2-(3-pyridyl)-N-[4-[5-(trifluoromethyl)-1,2,4-oxadiazol-3-yl]phenyl]acetamide]",inhibition of growth at 20 ppm,[2]; [4],≥ 80%
same,pest or weed control at 200 ppm,[1]; [3],≥ 80%
"C=CCCC(=O)Nc1ccc(-c2noc(C(F)(F)F)n2)cc1 [Compound 1.88, N-[4-[5-(trifluoromethyl)-1,2,4-oxadiazol-3-yl]phenyl]pent-4-enamide]",inhibition of growth at 20 ppm,[2]; [4],≥ 80%
same,pest or weed control at 200 ppm,[1]; [3],≥ 80%
"O=C(Cc1cccs1)Nc1ccc(-c2noc(C(F)(F)F)n2)cc1 [Compound 1.89, 2-(2-thienyl)-N-[4-[5-(trifluoromethyl)-1,2,4-oxadiazol-3-yl]phenyl]acetamide]",inhibition of growth at 20 ppm,[2]; [4],≥ 80%
same,pest or weed control at 200 ppm,[1]; [3],≥ 80%
"C=CCCCCC(=O)Nc1ccc(-c2noc(C(F)(F)F)n2)cc1 [Compound 1.93, N-[4-[5-(trifluoromethyl)-1,2,4-oxadiazol-3-yl]phenyl]hept-6-enamide]",inhibition of growth at 20 ppm,[2]; [4],≥ 80%
"C=CCC(=O)Nc1ccc(-c2noc(C(F)(F)F)n2)cc1 [Compound 1.94, N-[4-[5-(trifluoromethyl)-1,2,4-oxadiazol-3-yl]phenyl]but-3-enamide]",inhibition of growth at 20 ppm,[2]; [4],≥ 80%
same,pest or weed control at 200 ppm,[1]; [3],≥ 80%
"CC(=O)OCC(=O)Nc1ccc(-c2noc(C(F)(F)F)n2)cc1 [Compound 1.95, [2-oxo-2-[4-[5-(trifluoromethyl)-1,2,4-oxadiazol-3-yl]anilino]ethyl] acetate]",inhibition of growth at 20 ppm,[2]; [4],≥ 80%
same,pest or weed control at 200 ppm,[1]; [3],≥ 80%
"O=C(Cc1ccc(C(F)(F)F)nc1)Nc1ccc(-c2noc(C(F)(F)F)n2)cc1 [Compound 1.108, N-[4-[5-(trifluoromethyl)-1,2,4-oxadiazol-3-yl]phenyl]-2-[6-(trifluoromethyl)-3-pyridyl]acetamide]",inhibition of growth at 20 ppm,[2]; [4],≥ 80%
"CC(C)CCC(=O)Nc1ccc(-c2noc(C(F)(F)F)n2)cc1 [Compound 1.110, 4-methyl-N-[4-[5-(trifluoromethyl)-1,2,4-oxadiazol-3-yl]phenyl] pentanamide]",inhibition of growth at 20 ppm,[2]; [4],≥ 80%
"O=C(Cc1cccc(C(F)(F)F)n1)Nc1ccc(-c2noc(C(F)(F)F)n2)cc1 [Compound 1.114, N-[4-[5-(trifluoromethyl)-1,2,4-oxadiazol-3-yl]phenyl]-2-[6-(trifluoromethyl)-2-pyridyl]acetamide]",inhibition of growth at 20 ppm,[2]; [4],≥ 80%
"O=C(Cc1cc(F)cc(F)c1)Nc1ccc(-c2noc(C(F)(F)F)n2)cc1 [Compound 1.117, 2-(3,5-difluorophenyl)-N-[4-[5-(trifluoromethyl)-1,2,4-oxadiazol-3-yl]phenyl]acetamide]",inhibition of growth at 20 ppm,[2]; [4],≥ 80%
"O=C(Cc1ccc(OC(F)(F)F)cc1)Nc1ccc(-c2noc(C(F)(F)F)n2)cc1 [Compound 1.119, 2-[4-(trifluoromethoxy)phenyl]-N-[4-[5-(trifluoromethyl)-1,2,4-oxadiazol-3-yl]phenyl]acetamide]",inhibition of growth at 20 ppm,[2]; [4],≥ 80%
"CN(C(=O)c1ccccc1Cl)c1ccc(-c2noc(C(F)(F)F)n2)cc1 [Compound 1.134, 2-chloro-N-methyl-N-[4-[5-(trifluoromethyl)-1,2,4-oxadiazol-3-yl]phenyl]benzamide]",inhibition of growth at 20 ppm,[2]; [4],≥ 80%
"CCOCC(=O)Nc1ccc(-c2noc(C(F)(F)F)n2)cc1 [Compound 2.10, 2-ethoxy-N-[4-[5-(trifluoromethyl)-1,2,4-oxadiazol-3-yl]phenyl] acetamide]",inhibition of growth at 20 ppm,[2]; [4],≥ 80%
"CC1(C)CC1C(=O)Nc1ccc(-c2noc(C(F)(F)F)n2)cc1 (centres unmarked) [Compound 2.12, 2,2-dimethyl-N-[4-[5-(trifluoromethyl)-1,2,4-oxadiazol-3-yl]phenyl] cyclopropane-carboxamide]",inhibition of growth at 20 ppm,[2]; [4],≥ 80%
"C=CCON(C)C(=O)Nc1ccc(-c2noc(C(F)(F)F)n2)cc1 [Compound 2.21, 1-allyloxy-1-methyl-3-[4-[5-(trifluoromethyl)-1,2,4-oxadiazol-3-yl]phenyl]urea]",inhibition of growth at 20 ppm,[2]; [4],≥ 80%
"O=C(NCC(F)(F)F)Nc1ccc(-c2noc(C(F)(F)F)n2)cc1 [Compound 2.22, 1-(2,2,2-trifluoroethyl)-3-[4-[5-(trifluoromethyl)-1,2,4-oxadiazol-3-yl]phenyl]urea]",inhibition of growth at 20 ppm,[2]; [4],≥ 80%
"CN(C(=O)CC1CC1)c1ccc(-c2noc(C(F)(F)F)n2)cc1 [Compound 2.26, 2-cyclopropyl-N-methyl-N-[4-[5-(trifluoromethyl)-1,2,4-oxadiazol-3-yl]phenyl]acetamide]",inhibition of growth at 20 ppm,[2]; [4],≥ 80%

# From US20200022370A1, “MICROBIOCIDAL OXADIAZOLE DERIVATIVES” (SYNGENTA PARTICIPATIONS AG, priority 2016, published 2020)
